As usually defined, the inhibition is the share of the control response that was lost under treatment. Lower therefore signals a response near the control.

The target of one test is T1, human Fatty Acid Synthase (Homo sapiens, UniProt P49327).
T1 construct: made in house
T1 sequence (P49327 whole entry): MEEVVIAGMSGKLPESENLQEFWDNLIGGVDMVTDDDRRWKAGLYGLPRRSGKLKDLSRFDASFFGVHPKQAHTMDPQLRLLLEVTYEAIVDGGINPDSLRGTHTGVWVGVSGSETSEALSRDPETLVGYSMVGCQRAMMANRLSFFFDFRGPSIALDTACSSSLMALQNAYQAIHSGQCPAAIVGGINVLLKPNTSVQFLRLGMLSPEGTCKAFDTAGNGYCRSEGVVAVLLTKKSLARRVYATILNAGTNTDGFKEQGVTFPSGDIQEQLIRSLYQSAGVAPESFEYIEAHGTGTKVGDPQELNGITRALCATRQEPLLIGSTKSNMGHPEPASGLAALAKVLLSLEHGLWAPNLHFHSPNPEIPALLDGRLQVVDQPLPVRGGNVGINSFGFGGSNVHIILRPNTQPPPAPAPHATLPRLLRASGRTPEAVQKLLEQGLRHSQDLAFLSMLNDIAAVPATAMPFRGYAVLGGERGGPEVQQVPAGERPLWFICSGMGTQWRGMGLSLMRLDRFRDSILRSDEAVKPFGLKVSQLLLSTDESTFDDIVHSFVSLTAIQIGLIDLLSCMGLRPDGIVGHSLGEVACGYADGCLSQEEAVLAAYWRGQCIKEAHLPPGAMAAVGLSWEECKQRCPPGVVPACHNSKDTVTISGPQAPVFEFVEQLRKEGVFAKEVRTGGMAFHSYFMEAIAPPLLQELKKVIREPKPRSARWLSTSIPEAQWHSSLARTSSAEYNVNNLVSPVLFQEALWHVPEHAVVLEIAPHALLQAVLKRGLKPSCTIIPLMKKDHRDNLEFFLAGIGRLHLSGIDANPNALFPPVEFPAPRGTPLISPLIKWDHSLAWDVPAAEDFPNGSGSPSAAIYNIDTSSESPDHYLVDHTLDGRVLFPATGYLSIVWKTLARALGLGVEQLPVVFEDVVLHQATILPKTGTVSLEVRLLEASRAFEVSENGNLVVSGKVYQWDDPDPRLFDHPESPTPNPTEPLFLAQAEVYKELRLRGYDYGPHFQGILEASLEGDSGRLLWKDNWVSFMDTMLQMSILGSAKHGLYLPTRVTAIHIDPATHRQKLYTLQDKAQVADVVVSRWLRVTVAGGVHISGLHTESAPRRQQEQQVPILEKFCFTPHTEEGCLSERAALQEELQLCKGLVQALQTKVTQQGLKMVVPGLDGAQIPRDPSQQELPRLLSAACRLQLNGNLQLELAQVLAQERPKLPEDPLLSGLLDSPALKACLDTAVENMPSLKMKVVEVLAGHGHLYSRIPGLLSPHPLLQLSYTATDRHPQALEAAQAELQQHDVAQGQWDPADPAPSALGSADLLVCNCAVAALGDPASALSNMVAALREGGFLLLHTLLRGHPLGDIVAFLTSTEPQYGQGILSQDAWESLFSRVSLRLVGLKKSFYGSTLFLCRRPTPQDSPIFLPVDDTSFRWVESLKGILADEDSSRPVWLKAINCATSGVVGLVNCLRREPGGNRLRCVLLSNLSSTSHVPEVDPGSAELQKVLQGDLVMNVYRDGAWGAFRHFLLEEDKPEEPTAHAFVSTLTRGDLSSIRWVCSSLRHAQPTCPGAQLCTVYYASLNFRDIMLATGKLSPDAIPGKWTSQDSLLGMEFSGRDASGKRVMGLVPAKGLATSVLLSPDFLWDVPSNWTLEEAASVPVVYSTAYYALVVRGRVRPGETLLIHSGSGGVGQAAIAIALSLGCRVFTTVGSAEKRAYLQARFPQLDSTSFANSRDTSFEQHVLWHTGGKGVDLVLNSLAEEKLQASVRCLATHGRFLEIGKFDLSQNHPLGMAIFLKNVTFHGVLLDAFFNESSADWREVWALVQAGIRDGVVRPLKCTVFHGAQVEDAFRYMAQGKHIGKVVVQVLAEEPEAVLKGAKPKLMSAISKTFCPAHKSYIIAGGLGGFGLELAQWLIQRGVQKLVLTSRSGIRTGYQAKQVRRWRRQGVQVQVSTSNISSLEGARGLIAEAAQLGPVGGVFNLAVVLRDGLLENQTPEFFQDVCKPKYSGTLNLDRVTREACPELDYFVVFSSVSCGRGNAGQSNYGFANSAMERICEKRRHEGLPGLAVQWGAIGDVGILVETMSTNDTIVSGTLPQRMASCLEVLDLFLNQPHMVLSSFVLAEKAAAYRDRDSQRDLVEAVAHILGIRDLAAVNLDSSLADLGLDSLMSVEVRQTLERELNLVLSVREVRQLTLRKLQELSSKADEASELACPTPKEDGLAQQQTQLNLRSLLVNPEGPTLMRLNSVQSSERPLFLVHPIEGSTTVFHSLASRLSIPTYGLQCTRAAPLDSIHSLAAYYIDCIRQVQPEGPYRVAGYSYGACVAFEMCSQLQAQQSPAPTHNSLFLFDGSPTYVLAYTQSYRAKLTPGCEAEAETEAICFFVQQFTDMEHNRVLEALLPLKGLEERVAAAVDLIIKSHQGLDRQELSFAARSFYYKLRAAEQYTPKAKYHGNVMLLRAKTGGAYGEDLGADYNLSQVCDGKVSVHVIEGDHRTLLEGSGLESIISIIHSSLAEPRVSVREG
Nature of the test: Human FAS enzyme assay (decrease in NADPH fluorescence). Format: biochemical. The settings on record: % inhibition at a concentration of 100 micromolar. The gist of the method:
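In-house human FAS (0.4 μg) was preincubated 15 min at RT with compound and NADPH (added at 166.6 μM) in 0.1 M Tris pH 7.5, 1 mM glutathione, 0.05% BSA. Malonyl-/acetyl-CoA (500/150 μM in substrate mix) was then added for 60 min. Readout was NADPH fluorescence loss (ex 340/em 460) over a time-zero read, with IC50 from a sigmoid fit.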
Regarding `Cc1ccc(C(=O)N2CCC(O)(c3ccc(C(F)(F)F)cc3)CC2)cc1NS(C)(=O)=O` [Example 215, N-[5-[4-hydroxy-4-[4-(trifluoromethyl)phenyl]piperidine-1-carbonyl]-2-methylphenyl]methanesulfonamide], 100 µM produced 56% inhibition.

`Cc1ccc(C(=O)N2CCC(c3ccc(C(F)(F)F)cc3)CC2)cc1NS(=O)(=O)C1CCS(=O)(=O)C1` (centres unmarked) [Example 177, N-[2-methyl-5-[4-[4-(trifluoromethyl)phenyl]piperidine-1-carbonyl]phenyl]-1,1-dioxothiolane-3-sulfonamide] registered an inhibition at 100 µM of 91%.

In the case of `CCCS(=O)(=O)Nc1cc(C(=O)N2CCC(c3ccc(C#N)cc3)CC2)c(C)cc1C` [Example 117, N-[5-[4-(4-cyanophenyl)piperidine-1-carbonyl]-2,4-dimethyl-phenyl]propane-1-sulfonamide], the inhibition at 100 µM stood at 98%.

As for `C=CS(=O)(=O)Nc1cc(C(=O)N2CCC(c3ccc(C(N)=O)cc3)CC2)ccc1C` [Example 104, 4-[1-[3-(ethenylsulfonylamino)-4-methyl-benzoyl]-4-piperidyl]benzamide], 100 µM produced 76% inhibition.

`Cc1ccc(C(=O)N2CCC(c3ccc(C#N)cc3)CC2)cc1NS(=O)(=O)c1c(C)nn(C)c1Cl` [Example 100, 5-chloro-N-[5-[4-(4-cyanophenyl)piperidine-1-carbonyl]-2-methyl-phenyl]-1,3-dimethyl-pyrazole-4-sulfonamide] returned an inhibition at 100 µM of 90%.

With `Cc1ccc(C(=O)N2CCC(c3ccc(C#N)cc3)CC2)cc1NS(=O)(=O)c1cccc(C#N)c1` [Example 21, 3-cyano-N-[5-[4-(4-cyanophenyl)piperidine-1-carbonyl]-2-methyl-phenyl]benzenesulfonamide], testing at 100 µM gave an inhibition of 90%.

For `N#Cc1ccc(C2CCN(C(=O)c3cc(NS(=O)(=O)Cc4ccccc4)ccc3F)CC2)cc1` [Example 199, N-[3-[4-(4-cyanophenyl)piperidine-1-carbonyl]-4-fluorophenyl]-1-phenylmethane-sulfonamide], the inhibition at 100 µM was determined as 79%.

With `Cc1ccc(NS(=O)(=O)c2cccc(C#N)c2)cc1C(=O)N1CCC(c2ccc(C#N)cc2)CC1` [Example 47, 3-cyano-N-[3-[4-(4-cyanophenyl)piperidine-1-carbonyl]-4-methyl-phenyl]benzenesulfonamide], the inhibition at 100 µM was found to be 85%.

For `Cc1ccc(C(=O)N2CCC(c3ccc(-c4ncon4)cc3)CC2)cc1NS(C)(=O)=O` [Example 171, N-[2-methyl-5-[4-[4-(1,2,4-oxadiazol-3-yl)phenyl]piperidine-1-carbonyl]phenyl]methanesulfonamide], 100 µM produced 85% inhibition.

As for `Cc1ccc(C(=O)N2CCC(c3ccc(OC(F)(F)F)cc3)CC2)cc1NS(C)(=O)=O` [Example 180, N-[2-methyl-5-[4-[4-(trifluoromethoxy)phenyl]piperidine-1-carbonyl]phenyl]methanesulfonamide], at 100 µM the inhibition was 96%.

As for `Cc1ccc(C(=O)N2CCC(c3ccc(C#N)cc3)CC2)cc1NS(=O)(=O)c1ccc(N(C)C)nc1` [Example 96, N-[5-[4-(4-cyanophenyl)piperidine-1-carbonyl]-2-methyl-phenyl]-6-dimethylamino-pyridine-3-sulfonamide], at 100 µM the inhibition was 98%.

As to `Cc1nc(-c2ccc(C3CCN(C(=O)c4ccc(C)c(NS(C)(=O)=O)c4)CC3)cc2)no1` [Example 167, N-[2-methyl-5-[4-[4-(5-methyl-1,2,4-oxadiazol-3-yl)phenyl]piperidine-1-carbonyl]phenyl]methanesulfonamide], at 100 µM the inhibition was 87%.

In the case of `CCCCOc1ccc(S(=O)(=O)Nc2cc(C(=O)N3CCC(c4ccc(C#N)cc4)CC3)ccc2C)cc1` [Example 24, 4-butoxy-N-[5-[4-(4-cyanophenyl)piperidine-1-carbonyl]-2-methyl-phenyl]benzenesulfonamide], the inhibition at 100 µM came out at 83%.

Regarding `COc1ccc(C(=O)N2CCC(c3ccc(C#N)cc3)CC2)cc1NS(=O)(=O)Cc1ccccc1` [Example 89, N-[5-[4-(4-cyanophenyl)piperidine-1-carbonyl]-2-methoxy-phenyl]-1-phenyl-methanesulfonamide], the inhibition at 100 µM worked out at 78%.

`Cc1ccc(C(=O)N2CCC(c3ccc(C#N)cc3)CC2)cc1NS(=O)(=O)c1ccn(C)n1` [Example 140, N-[5-[4-(4-cyanophenyl)piperidine-1-carbonyl]-2-methyl-phenyl]-1-methyl-pyrazole-3-sulfonamide] came in with an inhibition at 100 µM of 100%.

With `Cc1ccc(C(=O)N2CCC(c3ccc(-c4ccccc4)cc3)CC2)cc1NS(C)(=O)=O` [Example 175, N-[2-methyl-5-[4-(4-phenylphenyl)piperidine-1-carbonyl]phenyl]methanesulfonamide], the inhibition at 100 µM came out at 71%.

`Cc1ccc(C(=O)N2CCC(c3ccc(C#N)cc3)CC2)cc1NS(=O)(=O)c1cccc(C(=O)O)c1` [Example 79, 3-[[5-[4-(4-cyanophenyl)piperidine-1-carbonyl]-2-methyl-phenyl]sulfamoyl]benzoic acid] gave an inhibition at 100 µM of 95%.

For the compound `Cc1ccc(C(=O)N2CCC(c3ccc(C#N)cc3)CC2)cc1NS(=O)(=O)c1ccc(Cl)cc1` [Example 3, 4-chloro-N-[5-[4-(4-cyanophenyl)piperidine-1-carbonyl]-2-methyl-phenyl]benzenesulfonamide], the inhibition at 100 µM turned out to be 96%.

`Cc1ccc(C(=O)N2CCC(c3ccc(C#N)cc3)CC2)cc1NS(=O)(=O)Cc1cccc(F)c1` [Example 27, N-[5-[4-(4-cyanophenyl)piperidine-1-carbonyl]-2-methyl-phenyl]-1-(3-fluorophenyl)methanesulfonamide] yielded an inhibition at 100 µM of 96%.

Turning to `COC(=O)CS(=O)(=O)Nc1ccc(C)c(C(=O)N2CCC(c3ccc(C#N)cc3)CC2)c1` [Example 38, methyl 2-[[3-[4-(4-cyanophenyl)piperidine-1-carbonyl]-4-methyl-phenyl]sulfamoyl]acetate], the inhibition at 100 µM worked out at 83%.

Consider `Cc1ccc(C(=O)N2CCC(c3ccc(C#N)cc3)CC2)cc1NS(=O)(=O)c1ccc(NC(C)C)nc1` [Example 99, N-[5-[4-(4-cyanophenyl)piperidine-1-carbonyl]-2-methyl-phenyl]-6-(propan-2-ylamino)pyridine-3-sulfonamide], for which the inhibition at 100 µM worked out at 92%.

Still in this test, the particulars now being: compounds excluded from the claims by proviso.
As for `Cc1ccc(C(=O)N2CCC(c3ccc(CC(=O)N(C)C)cc3)CC2)cc1NS(C)(=O)=O` [2-[4-[1-(3-methanesulfonamido-4-methylbenzoyl)piperidin-4-yl]phenyl]-N,N-dimethylacetamide], the “IC50s in the range of about 0.001 μM to about 30 μM” value (“IC50s in the range” below) was “do not have IC50s in the range of about 0.001 μM to about 30 μM”.

In the case of `Cc1ccc(C(=O)N2CCC(c3ccc(CNC(=O)C(C)(C)O)cc3)CC2)cc1NS(C)(=O)=O` [2-hydroxy-N-[[4-[1-(3-methanesulfonamido-4-methylbenzoyl)piperidin-4-yl]phenyl]methyl]-2-methylpropanamide], the “IC50s in the range” value is reported as “do not have IC50s in the range of about 0.001 μM to about 30 μM”.

On to `Cc1ccc(C(=O)N2CCC(c3cccc(Cl)c3)CC2)cc1NS(C)(=O)=O` [N-[5-[4-(3-chlorophenyl)piperidine-1-carbonyl]-2-methylphenyl]methanesulfonamide], for which the “IC50s in the range” value is on record as “do not have IC50s in the range of about 0.001 μM to about 30 μM”.

On to `Cc1ccc(C(=O)N2CCC(c3ccc(S(=O)(=O)N4CC[C@@H](O)C4)cc3)CC2)cc1NS(C)(=O)=O` [N-[5-[4-[4-[(3R)-3-hydroxypyrrolidin-1-yl]sulfonylphenyl]piperidine-1-carbonyl]-2-methylphenyl]methanesulfonamide], for which the “IC50s in the range” value is “do not have IC50s in the range of about 0.001 μM to about 30 μM”.

`Cc1ccc(C(=O)N2CCC(c3ccccc3)CC2)cc1NS(=O)(=O)c1ccc(Cl)cc1` [4-chloro-N-[2-methyl-5-(4-phenylpiperidine-1-carbonyl)phenyl]benzenesulfonamide]: the “IC50s in the range” value was “do not have IC50s in the range of about 0.001 μM to about 30 μM”.

The values are drawn from patent US20090105305A1, “Therapeutic Agents - 550” (AstraZeneca AB, priority 2006, published 2009).
